Measurements: PMC12681940, “Schisandrin B Targets PXR to Enhance Bile Acid Metabolism and Alleviate ANIT-Induced Cholestatic Liver Injury via Dual Pathways” (International Journal of Biological Sciences, 2026)

Target: T1, pregnane X receptor (PXR) (Homo sapiens, UniProt O75469)
T1 construct: gene NR1I2
T1 sequence (O75469 106-434): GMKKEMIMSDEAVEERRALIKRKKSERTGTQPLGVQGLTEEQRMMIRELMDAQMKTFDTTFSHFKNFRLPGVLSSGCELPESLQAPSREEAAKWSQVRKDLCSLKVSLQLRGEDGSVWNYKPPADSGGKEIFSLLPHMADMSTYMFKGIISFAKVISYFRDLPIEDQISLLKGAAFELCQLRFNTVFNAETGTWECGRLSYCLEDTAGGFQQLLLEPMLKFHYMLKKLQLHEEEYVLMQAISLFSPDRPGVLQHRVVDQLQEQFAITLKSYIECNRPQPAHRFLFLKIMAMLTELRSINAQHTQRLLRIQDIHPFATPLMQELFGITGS
Test: biochemical

Structure (SMILES): COc1cc2c(c(OC)c1OC)-c1c(cc3c(c1OC)OCO3)CC(C)C(C)C2 (stereo not shown) [Sin B, Schisandrin B]
- Kd: 6.6 µM
